The source of these data is article PMC2744590 (Biochimica et biophysica acta, 2009).

Where two headings read alike, the source gives them in different places.

In experiment [1] the target is nicotinic (α4)2(β2)3 receptors. The conditions noted are these: cited from earlier work.
The subject of experiment [2] is α4β2 and α4β4 nAChRs. Particulars: range over both agonists and both receptors; cited from earlier work.
The target in experiment [3] is α4 with β2S113R nAChR (Homo sapiens, UniProt P17787+P43681, S138R). The experiment is described as follows: Two-electrode voltage clamp of receptors expressed in Xenopus oocytes. It counts as cell-based.
α4 with β2S113R nAChR, sequence (P43681 29-627 limits assumed): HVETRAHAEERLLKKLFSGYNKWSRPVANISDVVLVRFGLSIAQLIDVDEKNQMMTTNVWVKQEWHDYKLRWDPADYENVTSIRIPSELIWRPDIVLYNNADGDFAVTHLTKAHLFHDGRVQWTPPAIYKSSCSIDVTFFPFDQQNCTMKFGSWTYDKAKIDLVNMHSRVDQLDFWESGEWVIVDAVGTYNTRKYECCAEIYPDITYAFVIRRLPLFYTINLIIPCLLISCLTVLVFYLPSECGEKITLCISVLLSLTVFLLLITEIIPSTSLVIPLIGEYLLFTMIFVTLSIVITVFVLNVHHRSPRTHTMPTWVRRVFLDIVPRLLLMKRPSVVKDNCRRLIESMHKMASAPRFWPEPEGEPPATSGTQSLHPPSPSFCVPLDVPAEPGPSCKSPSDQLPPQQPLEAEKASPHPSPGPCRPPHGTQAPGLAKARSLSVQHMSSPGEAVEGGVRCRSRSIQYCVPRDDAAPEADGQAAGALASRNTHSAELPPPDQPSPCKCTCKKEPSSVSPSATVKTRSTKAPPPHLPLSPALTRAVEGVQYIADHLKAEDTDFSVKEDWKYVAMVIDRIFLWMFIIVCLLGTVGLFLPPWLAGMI
α4 with β2S113R nAChR, sequence (P17787 26-502 S138R): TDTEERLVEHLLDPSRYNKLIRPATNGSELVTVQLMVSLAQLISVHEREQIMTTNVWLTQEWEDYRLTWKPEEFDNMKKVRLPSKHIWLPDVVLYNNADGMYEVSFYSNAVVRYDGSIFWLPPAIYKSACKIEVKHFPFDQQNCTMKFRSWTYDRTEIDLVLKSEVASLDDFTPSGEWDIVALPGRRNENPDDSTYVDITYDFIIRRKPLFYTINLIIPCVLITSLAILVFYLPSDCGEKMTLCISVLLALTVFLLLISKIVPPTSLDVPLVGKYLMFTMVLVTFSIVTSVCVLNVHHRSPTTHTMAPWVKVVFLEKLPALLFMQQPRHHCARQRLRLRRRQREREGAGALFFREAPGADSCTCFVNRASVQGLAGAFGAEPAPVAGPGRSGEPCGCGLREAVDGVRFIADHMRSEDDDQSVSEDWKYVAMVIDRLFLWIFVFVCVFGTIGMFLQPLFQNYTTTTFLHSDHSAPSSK
The target of experiment [4] is α4 with β2F119Q nAChR (Homo sapiens, UniProt P17787+P43681, F144Q). The description is as above. It counts as cell-based.
α4 with β2F119Q nAChR, sequence (P43681 29-627, stated change not applied): as the sequence (P43681 29-627 limits assumed) above
α4 with β2F119Q nAChR, sequence (P17787 26-502 F144Q): as the sequence (P17787 26-502 S138R) above, with R113S, F119Q counted along it
Experiment [5] deals with α4β4 receptor. The conditions noted are these: read-out: IC50 inhibiting binding of [3H]epibatidine; cited from earlier work.
Experiment [6] has as its target α4 with wild-type β2 nAChR, (α4)2(β2)3 (Homo sapiens, UniProt P17787+P43681). Nature of the experiment: Two-electrode voltage clamp of receptors expressed in Xenopus oocytes. It counts as cell-based. For orientation: In two-electrode clamp one electrode senses voltage and the other passes current.
Experiment [7] addresses rat α4β4 nAChRs (Rattus norvegicus, UniProt P09483+P12392). It counts as binding.
Experiment [8] has as its target human α4β2 nAChRs (Homo sapiens, UniProt P17787+P43681). Nature of the experiment: Photoaffinity labeling. The conditions noted are these: ∼1 nM probe, 254 nm, α4 or β2 subunit. It counts as binding.
Experiment [9] has as its target α4β2F119Q, α4β2S113R and wild-type (WT) hα4β2 receptors. Details: species or system human. The conditions noted are these: read-out: [3H]epibatidine binding affinities; range over α4β2F119Q, α4β2S113R and WT hα4β2 transiently expressed in HEK 293 cells.
Experiment [10] addresses α4β2F119Q receptors (Homo sapiens, UniProt P17787+P43681, F144Q). It counts as binding. The conditions noted are these: preincubation with 100 nM epibatidine.
The mark [11] stands for this setting: read-out: EC50 of activation, 5 oocytes.

rat α4β4 nAChRs, sequence (P09483 31-630): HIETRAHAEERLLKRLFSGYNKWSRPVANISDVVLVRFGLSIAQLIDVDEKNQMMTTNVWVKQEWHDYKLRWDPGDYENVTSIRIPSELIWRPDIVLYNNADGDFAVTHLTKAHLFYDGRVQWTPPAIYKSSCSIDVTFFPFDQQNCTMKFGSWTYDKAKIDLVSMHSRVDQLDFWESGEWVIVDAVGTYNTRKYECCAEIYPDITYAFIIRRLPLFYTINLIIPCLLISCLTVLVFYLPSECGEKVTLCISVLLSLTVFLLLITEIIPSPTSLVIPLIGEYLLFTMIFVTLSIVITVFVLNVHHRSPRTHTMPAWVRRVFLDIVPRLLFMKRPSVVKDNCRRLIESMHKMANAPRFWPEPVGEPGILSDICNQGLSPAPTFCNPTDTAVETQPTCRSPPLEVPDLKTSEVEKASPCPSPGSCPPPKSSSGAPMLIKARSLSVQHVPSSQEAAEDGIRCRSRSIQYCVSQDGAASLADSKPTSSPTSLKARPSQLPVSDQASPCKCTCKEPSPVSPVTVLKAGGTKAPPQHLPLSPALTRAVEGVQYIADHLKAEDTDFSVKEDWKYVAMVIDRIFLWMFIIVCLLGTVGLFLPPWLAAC
rat α4β4 nAChRs, sequence (P12392 25-495): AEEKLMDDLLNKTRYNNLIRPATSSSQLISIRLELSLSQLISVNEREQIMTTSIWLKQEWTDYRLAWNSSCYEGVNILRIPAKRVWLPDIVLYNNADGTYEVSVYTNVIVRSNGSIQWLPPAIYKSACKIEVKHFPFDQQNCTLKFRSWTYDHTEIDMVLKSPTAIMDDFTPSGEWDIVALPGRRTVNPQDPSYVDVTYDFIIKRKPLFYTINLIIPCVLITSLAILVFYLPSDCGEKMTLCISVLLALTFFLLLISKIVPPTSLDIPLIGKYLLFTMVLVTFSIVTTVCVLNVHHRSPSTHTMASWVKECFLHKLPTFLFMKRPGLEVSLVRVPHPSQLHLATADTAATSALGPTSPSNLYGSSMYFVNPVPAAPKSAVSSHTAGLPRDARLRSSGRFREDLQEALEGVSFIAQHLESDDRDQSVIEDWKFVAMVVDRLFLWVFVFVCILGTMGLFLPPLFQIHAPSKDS
α4 with wild-type β2 nAChR, (α4)2(β2)3, sequence (P43681 29-627 limits assumed): as the sequence (P43681 29-627 limits assumed) above
α4 with wild-type β2 nAChR, (α4)2(β2)3, sequence (P17787 26-502): as the sequence (P17787 26-502 S138R) above, with R113S counted along it
human α4β2 nAChRs, sequence (P17787 26-502): as the sequence (P17787 26-502 S138R) above, with R113S counted along it
human α4β2 nAChRs, sequence (P43681 29-627): as the sequence (P43681 29-627 limits assumed) above
α4β2F119Q receptors, sequence (P43681 29-627, stated change not applied): as the sequence (P43681 29-627 limits assumed) above
α4β2F119Q receptors, sequence (P17787 26-502 F144Q): as the sequence (P17787 26-502 S138R) above, with R113S, F119Q counted along it

Broadly, the EC50 is the midpoint of the concentration-response curve. As a reminder, the IC50 is the point on the concentration scale where inhibition reaches its midpoint. Turning to `Cl.Cl.Ic1cncc(OC[C@@H]2CCN2)c1` [5I-A-85380, 5-iodo-A-85380 dihydrochloride], the EC50 in [1] was around 0.01 µM; in experiment [3] (read-out: EC50 of activation, 7 oocytes), 0.03 ± 0.007 µM; in experiment [4] (setting [11]) it was 0.338 ± 0.077 µM; in experiment [6] (setting [11]) it was 0.023 ± 0.002 µM. For the same compound, the maximal response result in experiment [1] (compared with ACh) is given as “larger than that for ACh itself”. Moreover, the binding affinity in experiment [2] is 0.062 to 24 nM. Moreover, the IC50 in experiment [5] was 0.024 µM.

Turning to `[125I]c1cncc(OCC2CCN2)c1` (stereo not shown) [5[^125I]A-85380], the pattern of photoincorporation result in experiment [7] (1 nM probe, 254 nm, 30 or 15 min) was “incorporated selectively into the β4 subunit”; in experiment [8] it was “very little if any photoincorporation”.

As to `CC(=O)OCC[N+](C)(C)C` [ACh, Acetylcholine chloride], the “actual amplitude of the ACh response” value is on record as -3.3 μA in experiment [3] (1 mM ACh, single oocyte trace); -0.03 μA in experiment [4] (1 mM ACh, single oocyte trace); -0.8 μA in experiment [6] (1 mM ACh, single oocyte trace).

With `Clc1ccc(C2CC3CCC2N3)cn1` (stereo not shown) [[^3H]epibatidine], in experiment [9], the Kd was 0.0004 to 0.0007 µM.

On to `Clc1ccc(C2CC3CCC2N3)cn1` (stereo not shown) [epibatidine], for which the “effect on labeling by radiolabeled agonist” value in experiment [7] is “complete elimination of labeling”. Further, in [10], the “effect on [125I]epibatidine labeling in the β2F119Q subunit” value is “completely eliminated labeling”.

Turning to `Ic1ccc(C2CC3CCC2N3)cn1` (stereo not shown) [iodoepibatidine], the binding affinity in experiment [2] is 0.062 to 24 nM.

As for `CN1CCC[C@H]1c1cccnc1` [nicotine], the “effect on labeling by radiolabeled agonist” value in experiment [7] (15 min preincubation with 100 μM nicotine or 100 nM epibatidine) is given as “complete elimination of labeling”. Further, the “reduction of [125I]epibatidine labeling of β4 subunit and β4′ fragment” value in [7] (co-application of 100 μM nicotine, γ-counting of excised gel bands) is given as above 50%.

In the case of [^125I]epibatidine, the pattern of photoincorporation result in experiment [8] is listed as “very little if any photoincorporation”.
